Laboratory results as given in US20230257390A1, “COMPOUNDS WHICH INHIBIT RNA POLYMERASE AND THEIR USE” (The Johns Hopkins University, priority 2020, published 2023).
Structures can show the parent of a compound that is named as a salt.

Assays:
NCI60 cancer cell lines = details: cited from earlier work
tumor burden = details: mouse xenograft assays; cited from earlier work
RPA194 = RPA194 immunofluorescence high-content imaging in A375 cells (Pol I inhibition); type: cell-based; details: treated for 4 hours, top concentration 10 μM
Method: Cell culture: A375 cells (CRL-1619, ATCC) were grown in DMEM (GIBCO) supplemented with 10% fetal bovine serum (GIBCO) in 5% CO2 at 37° C.
Cell treatment and Imaging: 18 hours post-seeding in cell carrier black 384-well plates (PerkinElmer) at 15 000 cells/well, A375 cells were treated for 4 hours with a positive control or test compounds (9 serial semi-log dilutions, top concentration 10 μM). Upon treatment A375 cells were (i) fixed for 15 min at RT with 4% of paraformaldehyde, (ii) permeabilized for 20 min at RT with 0.1-0.5% of NP-40, (iii) incubated with primary antibodies at 4° C.: anti-RPA194 (1:1000-1:1250 dilution, sc-48385, Santa Cruz Biotechnology) and anti-gH2Ax (1:5000 dilution, 81299, Abcam or 1:4000, JBW302, Millipore) (iv) incubated for 1 h at RT with Hoechst (1:5000 dilution, H3570, ThermoFisher) and secondary antibodies: anti-mouse-AlexaFluor488 (1:2000 dilution, A11001, ThermoFisher) and anti-rabbit-AlexaFluor647 (1:2000 dilution, A21443, ThermoFisher) or goat anti-mouse AlexaFluor-594 (1:1000 dilution). Images were acquired on an Operetta CLS High-Content Analysis System (PerkinElmer) (40× objective; 9 fields/well) and processed using the Columbus Image Analysis System (PerkinElmer) or by using Molecular Devices ImageXpress Micro XLS High Content Imager and MetaXpress high-content acquisition and analysis software.
In the table below, (+) is associated with a pIC50 5.02 to 5.8; (++) with pIC50 5.8 to 6.3; and plus sing (+++) with a pIC50 above 6.3.

SMILES	Activity Range (pIC50) (RPA194)	also measured
CN(C)CCNC(=O)c1cccn2c(=O)c3cc4ccccc4cc3nc12 [BMH-21, 12H-Benzo[g]pyrido[2,1-b]quinazoline-4-carboxamide, N-[2(dimethylamino)ethyl]-12-oxo]	–	anticancer activity (NCI60 cancer cell lines): anticancer activity; tumor burden (tumor burden): reduced tumor burden
O=C(NCCN1C[C@@H](O)[C@H](O)C1)c1cccn2c(=O)c3cc4c(cc3nc12)OC(F)(F)O4 [Compound 101, N-(2-((3R,4R)-3,4-dihydroxypyrrolidin-1-yl)ethyl)-2,2-difluoro-11-oxo-11H-[1,3]dioxolo[4,5-g]pyrido[2,1-b]quinazoline-6-carboxamide]	+ ((+) is associated with a pIC50 5.02 to 5.8)	–
O=C(NCCN1CCC(O)C1)c1cccn2c(=O)c3cc4c(cc3nc12)OC(F)(F)O4 (centres unmarked) [Compound 102, 2,2-difluoro-N-(2-(3-hydroxypyrrolidin-1-yl)ethyl)-11-oxo-11H-[1,3]dioxolo[4,5-g]pyrido[2,1-b]quinazoline-6-carboxamide; hydrochloride]	+ ((+) is associated with a pIC50 5.02 to 5.8)	–
O=C1CCN(CCNC(=O)c2cccn3c(=O)c4cc5c(cc4nc23)OC(F)(F)O5)CC1 [Compound 103, 2,2-difluoro-11-oxo-N-(2-(4-oxopiperidin-1-yl)ethyl)-11H-[1,3]dioxolo[4,5-g]pyrido[2,1-b]quinazoline-6-carboxamide]	++ ((++) with pIC50 5.8 to 6.3)	–
CN(C)CCNC(=O)c1cccn2c(=O)c3cc4c(cc3nc12)OC(F)(F)O4 [Compound 104, N-(2-(dimethylamino)ethyl)-2,2-difluoro-11-oxo-11H-[1,3]dioxolo[4,5-g]pyrido[2,1-b]quinazoline-6-carboxamide; hydrochloride]	+ ((+) is associated with a pIC50 5.02 to 5.8)	–
O=C(NCCN1CCC(O)CC1)c1cccn2c(=O)c3cc4c(cc3nc12)OC(F)(F)O4 [Compound 105, 2,2-difluoro-N-(2-(4-hydroxypiperidin-1-yl)ethyl)-11-oxo-11H-[1,3]dioxolo[4,5-g]pyrido[2,1-b]quinazoline-6-carboxamide; hydrochloride]	++ ((++) with pIC50 5.8 to 6.3)	–
CN(C)C(C)(C)CNC(=O)c1cccn2c(=O)c3cc4c(cc3nc12)OC(F)(F)O4 [Compound 106, N-(2-(dimethylamino)-2-methylpropyl)-2,2-difluoro-11-oxo-11H-[1,3]dioxolo[4,5-g]pyrido[2,1-b]quinazoline-6-carboxamide; hydrochloride]	+ ((+) is associated with a pIC50 5.02 to 5.8)	–
O=C(NCCN1CCCC1)c1cccn2c(=O)c3cc4c(cc3nc12)OC(F)(F)O4 [Compound 107, 2,2-difluoro-11-oxo-N-(2-(pyrrolidin-1-yl)ethyl)-11H-[1,3]dioxolo[4,5-2]pyrido[2,1-b]quinazoline-6-carboxamide; hydrochloride]	+++ ((+++) with a pIC50 above 6.3)	–
O=C(NCCN1CCCC1)c1cccn2c(=O)c3cc4c(cc3nc12)OCO4 [Compound 108, 11-oxo-N-(2-(pyrrolidin-1-yl)ethyl)-11H-[1,3]dioxolo[4,5-g]pyrido[2,1-b]quinazoline-6-carboxamide; hydrochloride]	++ ((++) with pIC50 5.8 to 6.3)	–
Cc1cc2nc3c(C(=O)NCCN(C)C)cccn3c(=O)c2cc1C [Compound 109, N-(2-(dimethylamino)ethyl)-2,3-dimethyl-11-oxo-11H-pyrido[2,1-b]quinazoline-6-carboxamide; hydrochloride]	++ ((++) with pIC50 5.8 to 6.3)	–
Cc1cc2nc3c(C(=O)NCCN4CCCC4)cccn3c(=O)c2cc1C [Compound 110, 2,3-dimethyl-11-oxo-N-(2-(pyrrolidin-1-yl)ethyl)-11H-pyrido[2,1-b]quinazoline-6-carboxamide; hydrochloride]	++ ((++) with pIC50 5.8 to 6.3)	–
CN(C)CCNC(=O)c1cccn2c(=O)c3cc4c(cc3nc12)CCCC4 [Compound 111, N-(2-(dimethylamino)ethyl)-12-oxo-7,9,10,12-tetrahydro-8H-benzo[g]pyrido[2,1-b]quinazoline-4-carboxamide; hydrochloride]	+ ((+) is associated with a pIC50 5.02 to 5.8)	–
O=C(NCCN1CCCC1)c1cccn2c(=O)c3cc4c(cc3nc12)CCCC4 [Compound 112, 12-oxo-N-(2-(pyrrolidin-1-yl)ethyl)-7,9,10,12-tetrahydro-8H-benzo[g]pyrido[2,1-b]quinazoline-4-carboxamide; hydrochloride]	++ ((++) with pIC50 5.8 to 6.3)	–
O=C(NCCN1CCCC1)c1cccn2c(=O)c3cc4c(cc3nc12)OCCO4 [Compound 113, 12-oxo-N-(2-(pyrrolidin-1-yl)ethyl)-2,3-dihydro-12H-[1,4]dioxino[2,3-2]pyrido[2,1-b]quinazoline-7-carboxamide; hydrochloride]	+ ((+) is associated with a pIC50 5.02 to 5.8)	–
CN(C)CCNC(=O)c1cccn2c(=O)c3cc4c(cc3nc12)OCCO4 [Compound 114, N-(2-(dimethylamino)ethyl)-12-oxo-2,3-dihydro-12H-[1,4]dioxino[2,3-g]pyrido[2,1-b]quinazoline-7-carboxamide; hydrochloride]	+ ((+) is associated with a pIC50 5.02 to 5.8)	–
Cc1ccc2c(=O)n3cccc(C(=O)NCCN4CC[C@@H](O)C4)c3nc2c1C [Compound 115, (R)-N-(2-(3-hydroxypyrrolidin-1-yl)ethyl)-3,4-dimethyl-11-oxo-11H-pyrido[2,1-b]quinazoline-6-carboxamide; hydrochloride]	+++ ((+++) with a pIC50 above 6.3)	–
Cc1ccc2c(=O)n3cccc(C(=O)NCCN4CCCC4)c3nc2c1 [Compound 116, 3-methyl-11-oxo-N-(2-(pyrrolidin-1-yl)ethyl)-11H-pyrido[2,1-b]quinazoline-6-carboxamide;hydrochloride]	+ ((+) is associated with a pIC50 5.02 to 5.8)	–
Cc1cccc2c(=O)n3cccc(C(=O)NCCN4CCCC4)c3nc12 [Compound 117, 4-methyl-11-oxo-N-(2-(Pyrrolidin-1-Yl)ethyl)-11H-pyrido[2,1-b]quinazoline-6-carboxamide;hydrochloride]	++ ((++) with pIC50 5.8 to 6.3)	–
O=C(NCCN1CCCC1)c1cccn2c(=O)c3cccc(-c4ccccc4)c3nc12 [Compound 118, 11-oxo-4-phenyl-N-(2-(pyrrolidin-1-yl)ethyl)-11H-pyrido[2,1-b]quinazoline-6-carboxamide; hydrochloride]	+ ((+) is associated with a pIC50 5.02 to 5.8)	–
O=C(NCCN1CCCC1)c1cccn2c(=O)c3ccc(-c4ccccc4)cc3nc12 [Compound 119, 11-oxo-3-phenyl-N-(2-(pyrrolidin-1-yl)ethyl)-11H-pyrido[2,1-b]quinazoline-6-carboxamide; hydrochloride]	+ ((+) is associated with a pIC50 5.02 to 5.8)	–
Cc1ccc2c(=O)n3cccc(C(=O)NCCN4CCCC4)c3nc2c1C [Compound 120, 3,4-dimethyl-11-oxo-N-(2-(pyrrolidin-1-yl)ethyl)-11H-pyrido[2,1-b]quinazoline-6-carboxamide; hydrochloride]	+++ ((+++) with a pIC50 above 6.3)	–
O=C(NCCN1CCCC1)c1cccn2c(=O)c3ccc4c(c3nc12)OC(F)(F)O4 [Compound 121, 2,2-difluoro-6-oxo-N-(2-(pyrrolidin-1-yl)ethyl)-6H-[1,3]dioxolo[4,5-h]pyrido[2,1-b]quinazoline-11-carboxamide;hydrochloride]	+ ((+) is associated with a pIC50 5.02 to 5.8)	–
